The test system of assay [1] is SK-MEL-28. Description: Inhibition of colony formation in human SK-MEL-28 cells at 10 to 100 nM supplemented with fresh medium containing compound every 3 days for 14 days by crystal violet staining based assay. It is filed as functional, cell-based.
In another assay the test system is COLO 205. Nature of the assay: Antiproliferative activity against human COLO205 cells assessed as reduction in cell growth after 3 days by WST8 assay. The format is functional.
The test system of assay [2] is HT-29. Nature of the assay: Inhibition of colony formation in human HT-29 cells at 10 to 100 nM supplemented with fresh medium containing compound every 3 days for 14 days by crystal violet staining based assay. It is filed as functional, cell-based.
Assay [3] has as its target T1, von Hippel-Lindau disease tumor suppressor/Dual specificity mitogen-activated protein kinase kinase 2 (Homo sapiens) (UniProt P36507+P40337). Description: Protac activity against VHL/MEK2 in human SK-MEL-28 cells harboring with BRAF V600E variant assessed as degradation of MEK2 by measuring MEK2 protein level up to 1 uM after 24 hrs by Western blot analysis. The format is cell-based.

Assay [4] relates to HT-29. Nature of the assay: Antiproliferative activity against human HT-29 cells assessed as reduction in cell growth after 3 days by MTT assay. It is filed as functional.
The subject of assay [5] is SK-MEL-28. Nature of the assay: Antiproliferative activity against human SK-MEL-28 cells assessed as reduction in cell growth after 3 days by MTT assay. It is filed as functional.
A further assay deals with UACC-257. Nature of the assay: Antiproliferative activity against human UACC257 cells assessed as reduction in cell growth after 3 days by MTT assay. It is filed as functional.
Assay [6] deals with T1, von Hippel-Lindau disease tumor suppressor/Dual specificity mitogen-activated protein kinase kinase 2 (Homo sapiens). Description: Protac activity against VHL/MEK2 in human HT-29 cells harboring with BRAF V600E variant assessed as degradation of MEK2 by measuring MEK2 protein level up to 1 uM after 24 hrs by Western blot analysis. It is filed as cell-based.
Assay [7] has the same target. Nature of the assay: Protac activity against VHL/MEK2 in human HT-29 cells harboring BRAF V600E variant assessed as degradation of MEK2 at 0.3 to 3 uM after 24 hrs by Western blot analysis. It is filed as cell-based.
The target in assay [8] is T2, von Hippel-Lindau disease tumor suppressor/Dual specificity mitogen-activated protein kinase kinase 1 (Homo sapiens) (UniProt Q02750+P40337). Nature of the assay: Protac activity against VHL/MEK1 in human HT-29 cells harboring BRAF V600E variant assessed as degradation of MEK1 at 0.3 to 3 uM after 24 hrs by Western blot analysis. It is filed as cell-based.
T2 sequence (P40337 whole entry, looked up): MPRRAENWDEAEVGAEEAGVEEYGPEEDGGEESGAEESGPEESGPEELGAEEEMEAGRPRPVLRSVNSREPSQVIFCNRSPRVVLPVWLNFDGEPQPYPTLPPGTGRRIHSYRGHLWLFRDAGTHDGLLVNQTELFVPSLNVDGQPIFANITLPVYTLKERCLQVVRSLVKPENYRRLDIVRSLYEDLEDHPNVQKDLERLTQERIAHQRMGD
T2 sequence (Q02750 whole entry, looked up): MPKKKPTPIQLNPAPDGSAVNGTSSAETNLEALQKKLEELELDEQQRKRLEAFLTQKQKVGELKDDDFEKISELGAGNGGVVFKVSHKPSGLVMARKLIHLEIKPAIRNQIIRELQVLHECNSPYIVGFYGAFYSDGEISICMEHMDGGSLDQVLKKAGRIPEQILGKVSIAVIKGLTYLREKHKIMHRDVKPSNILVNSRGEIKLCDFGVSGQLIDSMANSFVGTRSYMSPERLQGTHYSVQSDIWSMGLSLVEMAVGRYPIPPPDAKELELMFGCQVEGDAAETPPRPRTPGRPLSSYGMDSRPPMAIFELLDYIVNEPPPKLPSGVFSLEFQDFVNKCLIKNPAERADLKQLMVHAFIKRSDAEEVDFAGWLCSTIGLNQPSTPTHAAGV
Assay [9] has as its target Protein cereblon/Dual specificity mitogen-activated protein kinase kinase 1 (Homo sapiens) (UniProt Q02750+Q96SW2). Nature of the assay: Protac activity against CRBN/MEK1 in human HT-29 cells harboring BRAF V600E variant assessed as degradation of MEK1 at 0.3 to 3 uM after 24 hrs by Western blot analysis. The format is cell-based.
The target in assay [10] is Protein cereblon/Dual specificity mitogen-activated protein kinase kinase 2 (Homo sapiens) (UniProt P36507+Q96SW2). Nature of the assay: Protac activity against CRBN/MEK2 in human HT-29 cells harboring BRAF V600E variant assessed as degradation of MEK2 at 0.3 to 3 uM after 24 hrs by Western blot analysis. The format is cell-based.
Sequence of Protein cereblon/Dual specificity mitogen-activated protein kinase kinase 2 (Homo sapiens) (P36507 whole entry, looked up): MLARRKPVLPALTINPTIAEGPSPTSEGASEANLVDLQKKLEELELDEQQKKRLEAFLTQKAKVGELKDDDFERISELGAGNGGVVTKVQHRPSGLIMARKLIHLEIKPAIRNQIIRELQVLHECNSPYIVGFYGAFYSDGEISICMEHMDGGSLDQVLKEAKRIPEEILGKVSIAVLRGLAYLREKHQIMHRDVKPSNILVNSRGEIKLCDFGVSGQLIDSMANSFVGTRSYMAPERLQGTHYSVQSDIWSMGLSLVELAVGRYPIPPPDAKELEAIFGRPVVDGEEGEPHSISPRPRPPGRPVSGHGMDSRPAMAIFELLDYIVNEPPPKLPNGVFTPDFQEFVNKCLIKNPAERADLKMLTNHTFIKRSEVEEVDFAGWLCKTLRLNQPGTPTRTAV
Sequence of Protein cereblon/Dual specificity mitogen-activated protein kinase kinase 2 (Homo sapiens) (Q96SW2 whole entry, looked up): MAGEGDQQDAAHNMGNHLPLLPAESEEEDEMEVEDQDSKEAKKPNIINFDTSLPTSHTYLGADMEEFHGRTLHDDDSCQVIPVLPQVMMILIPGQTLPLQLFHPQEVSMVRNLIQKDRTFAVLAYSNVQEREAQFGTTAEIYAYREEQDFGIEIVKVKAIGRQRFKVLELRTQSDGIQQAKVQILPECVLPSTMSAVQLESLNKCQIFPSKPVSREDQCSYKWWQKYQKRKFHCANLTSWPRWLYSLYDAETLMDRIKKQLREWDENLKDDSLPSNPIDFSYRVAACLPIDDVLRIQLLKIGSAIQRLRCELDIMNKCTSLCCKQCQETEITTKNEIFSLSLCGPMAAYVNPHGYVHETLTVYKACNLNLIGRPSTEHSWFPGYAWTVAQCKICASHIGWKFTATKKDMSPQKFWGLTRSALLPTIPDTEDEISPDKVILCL
The target of assay [11] is T2, von Hippel-Lindau disease tumor suppressor/Dual specificity mitogen-activated protein kinase kinase 1 (Homo sapiens). Description: Protac activity against VHL/MEK1 in human HT-29 cells harboring with BRAF V600E variant assessed as degradation of MEK1 by measuring reduction in MEK1 protein level at 0.1 uM after 10 hrs by LC-MS based Volcano plot analysis. It is filed as cell-based.

Assay [12] has as its target T1, von Hippel-Lindau disease tumor suppressor/Dual specificity mitogen-activated protein kinase kinase 2 (Homo sapiens). Description: Protac activity against VHL/MEK2 in human HT-29 cells harboring with BRAF V600E variant assessed as degradation of MEK2 by measuring reduction in MEK2 protein level at 0.1 uM after 10 hrs by LC-MS based Volcano plot analysis. It is filed as cell-based.

For assay [13], the target named is Dual specificity mitogen-activated protein kinase kinase 1 (Homo sapiens, UniProt Q02750). Description: Inhibition of recombinant full length human His-tagged MEK1 expressed in baculovirus expression system using ERK K52R dead variant as substrate preincubated for 20 mins followed by incubation with 33P-ATP addition for 2 hrs by hotspot kinase assay.
Sequence of Dual specificity mitogen-activated protein kinase kinase 1 (Q02750 whole entry): as the sequence (Q02750 whole entry, looked up) above
The target of assay [14] is Dual specificity mitogen-activated protein kinase kinase 2 (Homo sapiens, UniProt P36507). Nature of the assay: Inhibition of recombinant full length human His-tagged MEK2 expressed in baculovirus expression system using ERK K52R dead variant as substrate preincubated for 20 mins followed by incubation with 33P-ATP for 2 hrs by hotspot kinase assay.
Sequence of Dual specificity mitogen-activated protein kinase kinase 2 (P36507 whole entry): as the sequence (P36507 whole entry, looked up) above

Activity calls are given as the source filed them. The rule behind the calls is not given here.

T1 sequence (P36507 whole entry, looked up): as above
T1 sequence (P40337 whole entry, looked up): as the sequence (P40337 whole entry, looked up) above
Sequence of Protein cereblon/Dual specificity mitogen-activated protein kinase kinase 1 (Homo sapiens) (Q02750 whole entry, looked up): as the sequence (Q02750 whole entry, looked up) above
Sequence of Protein cereblon/Dual specificity mitogen-activated protein kinase kinase 1 (Homo sapiens) (Q96SW2 whole entry, looked up): as the sequence (Q96SW2 whole entry, looked up) above

On to `O=C(NOC[C@H](O)CO)c1ccc(F)c(F)c1Nc1ccc(I)cc1F` [MIRDAMETINIB], for which the inhibition result in the assay on SK-MEL-28 [1] and in the assay with HT-29 [2] was “Active” throughout. In addition, the GI50 is 0.2 to 4.2 nM in the assay on COLO 205 (COLO 205, 72 h); 3.1 nM in the assay on HT-29 [4] (HT-29, 72 h); 2.9 nM with SK-MEL-28 [5] (SK-MEL-28, 72 h); 0.2 to 4.2 nM in the assay on UACC-257 (UACC-257, 72 h). Also, the outcome in assay [3] and in assay [6] was inactive.
In the case of `Cc1ncsc1-c1ccc(CNC(=O)[C@@H]2C[C@@H](O)CN2C(=O)[C@@H](NC(=O)CCCCCCCCCCNCCCONC(=O)c2ccc(F)c(F)c2Nc2ccc(I)cc2F)C(C)(C)C)cc1`, the outcome in [7] and in assay [8] was Active.
In the case of `O=C1CCC(N2C(=O)c3cccc(NCCNCCCONC(=O)c4ccc(F)c(F)c4Nc4ccc(I)cc4F)c3C2=O)C(=O)N1` (stereo not given), the result in [9] and in assay [10] was inactive.
As to `Cc1ncsc1-c1ccc(CNC(=O)[C@@H]2C[C@@H](O)CN2C(=O)[C@@H](NC(=O)CCCCCCNCCCONC(=O)c2ccc(F)c(F)c2Nc2ccc(I)cc2F)C(C)(C)C)cc1`, the outcome in assay [7] and in assay [8] was Active.
For the compound `Cc1ncsc1-c1ccc([C@H](C)NC(=O)[C@H]2C[C@H](O)CN2C(=O)[C@@H](NC(=O)CCCCCCCCCCNCCCONC(=O)c2ccc(F)c(F)c2Nc2ccc(I)cc2F)C(C)(C)C)cc1`, the outcome in assay [11], in assay [12], in assay [3] and in [6] was inactive. In addition, the inhibition result in the assay with SK-MEL-28 [1] and in the assay with HT-29 [2] was “inactive” in each case. In addition, the GI50 result with COLO 205, in the assay with HT-29 [4], with SK-MEL-28 [5] and with UACC-257 was “inactive” throughout. The IC50 was 1600 nM in assay [13] and 1500 nM in assay [14].
For `O=C1CCC(N2C(=O)c3cccc(NCCOCCNCCCONC(=O)c4ccc(F)c(F)c4Nc4ccc(I)cc4F)c3C2=O)C(=O)N1` (stereo not given), the outcome in assay [9] and in [10] was inactive.
For `Cc1ncsc1-c1ccc(CNC(=O)[C@@H]2C[C@@H](O)CN2C(=O)[C@@H](NC(=O)COCCOCCOCCNCCCONC(=O)c2ccc(F)c(F)c2Nc2ccc(I)cc2F)C(C)(C)C)cc1`, the result in assay [7] and in assay [8] was Active.

(Values after ChEMBL document CHEMBL4321854, “Discovery of a First-in-Class Mitogen-Activated Protein Kinase Kinase 1/2 Degrader” (J Med Chem, 2019).)
